The source made the active and inactive calls. The rule behind the calls is not given here.
Legend:
PC-9 [1] = assay: Down-regulation of Axl in RICTOR-knockdown human PC-9 cells assessed as half-life of Axl; format: functional, cell-based
NCI-H1703 [2] = assay: Inhibition of RICTOR-amplified human NCI-H1703 cells invasion; format: functional, cell-based
NCI-H23 [3] = assay: Antitumor activity against RICTOR-knockdown human NCI-H23 cells xenografted in mouse assessed as inhibition of tumor growth; format: functional
NCI-H23 [4] = assay: Inhibition of RICTOR-amplified human NCI-H23 cells invasion; format: functional, cell-based
NCI-H1703 [5] = assay: Inhibition of RICTOR-amplified human NCI-H1703 cells migration; format: functional, cell-based
HCC827 [6] = assay: Inhibition of RICTOR-upregulated human HCC827 cell invasion; format: functional, cell-based
NCI-H23 [7] = assay: Inhibition of RICTOR-amplified human NCI-H23 cells migration; format: functional, cell-based
HCC827 [8] = assay: Inhibition of RICTOR-upregulated human HCC827 cell migration; format: functional, cell-based
HCC827 [9] = assay: Induction of apoptosis in RICTOR-upregulated human HCC827 cells; format: functional, cell-based
HCC827 [10] = assay: Induction of apoptosis in erlotinib-resistant human HCC827 cells with RICTOR-knockdown; format: functional, cell-based
PC-9 [11] = assay: Antiproliferative activity against doxycycline-induced RICTOR-knockdown human PC-9 cells; format: functional, cell-based
HCC827 [12] = assay: Antiproliferative activity against doxycycline-induced RICTOR-knockdown human HCC827 cells; format: functional, cell-based
HCC827 [13] = assay: Antitumor activity against erlotinib-resistant doxycycline-induced RICTOR-knockdown human HCC827 cells xenografted in mouse assessed as decrease in Axl expression; format: functional, cell-based
HCC827 [14] = assay: Antitumor activity against erlotinib-resistant doxycycline-induced RICTOR-knockdown human HCC827 cells xenografted in mouse assessed as inhibition of tumor growth; format: functional, cell-based
HCC827 [15] = assay: Antiproliferative activity against erlotinib-resistant doxycycline-induced RICTOR-knockdown human HCC827 cells assessed as fold decrease in compound IC50; format: functional

Row | SMILES | inhibition (NCI-H1703 [2]) | inhibition (NCI-H23 [4]) | inhibition (NCI-H1703 [5]) | inhibition (NCI-H23 [7]) | Activity (PC-9 [11]) | Activity (HCC827 [12]) | also measured
1 | C[C@@H]1C[C@@H]([C@H](O)CC2CC(=O)NC(=O)C2)C(=O)[C@@H](C)C1 | – | – | – | – | – | – | T1/2 (PC-9 [1]): 3.2 h
2 | CC(C)n1nc(-c2ccc3oc(N)nc3c2)c2c(N)ncnc21 [SAPANISERTIB] | Active | Active | Active | Active | – | – | TGI (NCI-H23 [3]): 75%; inhibition (HCC827 [6]): Active; inhibition (HCC827 [8]): Active
3 | C=CC(=O)Nc1cc(Nc2nccc(-c3cn(C)c4ccccc34)n2)c(OC)cc1N(C)CCN(C)C | – | – | – | – | Active | – | Activity (HCC827 [9]): inactive; Activity (HCC827 [10]): Active
4 | C#Cc1cccc(Nc2ncnc3cc(OCCOC)c(OCCOC)cc23)c1 [ERLOTINIB] | – | – | – | – | Active | Active | Activity (HCC827 [13]): Active; Activity (HCC827 [14]): Active; fold change (FC) (HCC827 [15]): 1000
5 | CNC(=O)c1cccc(-c2ccc3c(N4CCOC[C@@H]4C)nc(N4CCOC[C@@H]4C)nc3n2)c1 | Active | Active | Active | Active | – | – | –
6 | CN(C)C/C=C/C(=O)Nc1cc2c(Nc3ccc(F)c(Cl)c3)ncnc2cc1O[C@H]1CCOC1 | – | – | – | – | – | Active | –
